Data as given in patent US7521463B2, “Immunomodulatory compounds” (University of Maryland, Baltimore, priority 2000, dated 2009).
Entries after “also recorded” stand apart in the source; their conditions may differ.

Legend:
[1] = tested on: OKT-3 activated Jurkat cells; test: Jurkat cell activation-dependent phosphorylation (OKT-3, anti-phosphotyrosine western blot); assay type: cell-based; settings: for effect on tyrosine phosphorylation of Jurkat cellular proteins, dose response: OKT-3, 0.1, 1, 10 and 100 μM; for effect on cellular tyrosine phosphorylation stimulated by OKT-3: compound 100 μM, 5 min at 37° C.
Protocol: Phosphorylation in Jurkat cells activated by the monoclonal antibody, OKT-3, is correlated with T-cell activation.
A. Compounds are tested for their effect on OKT-3 activated Jurkat cells. OKT-3 is a monoclonal antibody against CD3-ε chain. Treatment of Jurkat cells with OKT-3 antibody for 5 min at 37° C. activates Jurkat cells and induces tyrosine phosphorylation of several cellular proteins. […] Experiments are carried out to determine if compounds of the invention, or known compounds which can serve as standards, affect cellular tyrosine phosphorylation stimulated by OKT-3 in Jurkat cells.
The assay is performed as follows: Jurkat cells (1×10^6 cells) in RPMI 1640 supplemented with 10% fetal bovine serum (FBS) are treated with OKT-3 antibody (0.2 μg) and compounds (100 μM) for 5 min at 37° C. Cultures are immediately placed on ice after the incubation period, washed 3 times with cold PBS and lysed in 20 μl of SDS-sample buffer. Samples are briefly sonicated and boiled for 5 min and applied to SDS-PAGE (12% gel). After SDS-PAGE, proteins are blotted onto Immobilon P membrane (Millipore) for western blot analysis. Membranes are blocked overnight with 5% dried milk in TBST (Tris buffered saline containing 1% triton X-100). After washing, blots are incubated with monoclonal anti-phosphotyrosine antibody for 1 h in TBST followed by 1 hr incubation with horseradish peroxidase (HRP)-conjugated goat anti-mouse IgG. Blots are developed using enhanced chemiluminescence (ECL, Pierce).
The assay is performed as follows: Western blot analyses using anti-phosphotyrosine antibody are performed. Compounds (e.g., inventive compounds I′, II′ and III′) are added at concentrations of 0.1, 1, 10 and 100 μM. Cells are cultured as above.

p56^lck = p56^lck (Homo sapiens, UniProt P06239); test: p56^lck kinase activity (general statement); assay type: biochemical
[2] = tested on: IL-2 production in Jurkat cells; test: Inhibition of IL-2 production in OKT-3 treated Jurkat cells (RIA); assay type: cell-based, human
Protocol: Interleukin 2 (IL-2) is an autocrine growth factor for T cells, the production of which requires T cell antigen receptor and co-receptor generated activation signals in normal T cells. The production of IL-2 is a hallmark of T cell activation signaling, leading to the clonal expansion of antigen-specific T cell clones. In Jurkat cells, treatment of cells with OKT-3 leads to the production of IL-2. […] For example, about 50% inhibition of IL-2 production is observed when cells are treated with 10 μM compound III′ at the time of OKT-3 treatment. […] Unlike the complete inhibition of OKT-3 induced tyrosine phosphorylation, the inhibition of IL-2 production by compound III′ is partial.
The assay is performed as follows: Jurkat cells (1×10^6 cells) are treated with OKT-3 antibody (0.2 μg) in the presence or absence of compounds (e.g., Compound III′) (0.1, 1 and 10 μM) for 24 h in RPMI 1640+10% FBS. At the end of the incubation period, culture media are harvested and assayed for human IL-2 by RIA. Cells treated with OKT-3 only and PMA+Ionomycin serves as a positive control. Untreated cells serve as a negative control. IL-2 production is not detected in untreated cells. Cells treated with 10 μM of Compound III′ are shown to inhibit IL-2 production by 44%. The standard deviation is 0.23 pg/ml.

Jurkat cells = test: Effect on Jurkat cell viability / growth; assay type: cell-based; settings: 10 μM
Protocol: Compounds can be tested to determine whether they are cytotoxic or cytostatic. To test whether a compound which inhibits OKT-3-mediated stimulation of tyrosine phosphorylation has a cytotoxic effect on Jukat cells, its effect on the growth of Jurkat cells is tested.

p56^lck, sequence (P06239 whole entry): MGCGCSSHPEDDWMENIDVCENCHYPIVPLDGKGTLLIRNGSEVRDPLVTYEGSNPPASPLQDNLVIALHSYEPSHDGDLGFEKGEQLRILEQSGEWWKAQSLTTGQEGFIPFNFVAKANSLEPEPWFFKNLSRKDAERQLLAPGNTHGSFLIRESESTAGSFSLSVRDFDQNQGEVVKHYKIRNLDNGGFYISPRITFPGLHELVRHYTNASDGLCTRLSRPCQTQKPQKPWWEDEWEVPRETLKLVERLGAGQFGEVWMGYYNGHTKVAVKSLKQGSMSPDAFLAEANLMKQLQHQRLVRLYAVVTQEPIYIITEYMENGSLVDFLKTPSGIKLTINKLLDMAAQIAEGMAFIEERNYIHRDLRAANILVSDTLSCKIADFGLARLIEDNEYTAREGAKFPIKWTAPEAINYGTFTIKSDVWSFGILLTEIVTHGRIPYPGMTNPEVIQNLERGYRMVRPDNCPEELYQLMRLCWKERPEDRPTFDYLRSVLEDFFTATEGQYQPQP

For O=C(Sc1ccccn1)c1ccc(Oc2ccc(Cl)cc2Cl)c([N+](=O)[O-])c1 [Compound III′], the “effect on tyrosine phosphorylation at the lowest concentration” value ([1]; OKT-3, 0.1 μM) was “inhibits tyrosine phosphorylation”, the “effect on tyrosine phosphorylation of Jurkat cellular proteins, dose response” value [1] was “completely inhibits tyrosine phosphorylation of cellular proteins” and the “effect on cellular tyrosine phosphorylation stimulated by OKT-3” value [1] was “inhibitory activity”. The “effect on p56^lck kinase activity” value (p56^lck) was “inhibits p56^lck kinase activity”, the inhibition at 10 µM ([2]; Homo sapiens, Jurkat, 24 h, 10 μM, at the time of OKT-3 treatment) was about 50% and the “effect on IL-2 production at lower concentrations” value ([2]; lower concentrations (0.1, 1 μM), OKT-3, 24 h) was “no observable effect”. For the same compound, the “cytotoxic effect on Jurkat cells” value (Jurkat cells) was “no cytotoxic effect is observed”, the “effect on the growth of Jurkat cells” value (Jurkat cells) was “some cytostatic effect” and the “time after addition of compound at which Jurkat cells resume normal rate of growth” value (Jurkat cells) was 24 h.

In the case of CC(=O)OCc1cccc2cccc(Sc3ccccc3C(=O)O)c12 [Compound I′], the “effect on tyrosine phosphorylation of Jurkat cellular proteins, dose response” value [1] was “significantly stimulate tyrosine phosphorylation of Jurkat cellular proteins in a dose-dependent manner; also recorded: dose-dependent stimulation of tyrosine phosphorylation”, the “effect on cellular tyrosine phosphorylation stimulated by OKT-3” value [1] was “stimulatory activity” and the “effect on p56^lck kinase activity” value (p56^lck) was “activates p56^lck kinase activity”.
